Data from ChEMBL document CHEMBL2321868, “The discovery of novel potent trans-3,4-disubstituted pyrrolidine inhibitors of the human aspartic protease renin from in silico three-dimensional (3D) pharmacophore searches” (J Med Chem, 2013).

Biological target: Cathepsin D (Homo sapiens, UniProt P07339)
Assay: Inhibition of human recombinant cathepsin-D expressed in baculovirus-infected insect sf9 cells using Ac- E-D(EDANS)-KPILFFRLG-K(Dabcyl)-E-Amid as substrate incubated for 1 hr prior to substrate addition measured after 1 hr by FRET-based enzymatic assay

Sequence of Cathepsin D (P07339 65-162 limits assumed): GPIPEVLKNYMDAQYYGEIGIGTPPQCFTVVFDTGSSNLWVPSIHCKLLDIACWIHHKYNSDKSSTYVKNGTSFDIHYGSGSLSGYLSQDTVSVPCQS
Sequence of Cathepsin D (P07339 169-412 limits assumed): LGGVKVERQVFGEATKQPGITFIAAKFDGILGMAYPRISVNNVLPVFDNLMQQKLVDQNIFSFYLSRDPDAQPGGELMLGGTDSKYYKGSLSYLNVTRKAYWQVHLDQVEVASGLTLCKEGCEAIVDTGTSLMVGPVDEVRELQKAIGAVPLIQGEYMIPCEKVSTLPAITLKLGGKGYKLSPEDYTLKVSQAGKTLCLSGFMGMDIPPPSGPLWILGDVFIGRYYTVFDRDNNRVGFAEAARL

## COCCCOc1cc(C(=O)N(C[C@@H]2CNC[C@H]2Cc2ccccc2)C(C)C)ccc1OC.Cl
  IC50: > 30 µM
